What all share (format): physicochemical
A short description of data set [1]: limiting solubility in liquid-crystalline mixtures at 20° C. Conditions: for solubility exceeds the solubility of the known analogue: ratio to known derivative, No. 2, 7 and 6 of Table 3 vs No. 1, 5 and 6 of Table 6; for Solubility (limiting), known derivatives: Table 6, derivatives of SU 1089084.
The nature of data set [2]: negative dichroism S in a liquid-crystalline mixture. The settings on record: liquid-crystalline mixture ZK-807. The protocol: (§1) Table 1 given below lists the values of negative dichroism of the anthraquinone derivative of general formula /1/ for examples 1-30 in a liquid-crystalline mixture ZK-807; Table 2 illustrates physico-chemical characteristics, and Table 3--limiting solubility in liquid-crystalline mixtures (ZK-807, ZLI-1840, 3010, SP-586, ZK-1282) at 20° C.

The nature of data set [3]: λmax of the long-wave absorption band of the dye. The settings on record: Table 1 / Examples; several values = several maxima. The protocol: as §1

The structures appear in SMILES notation. Where “and” joins values, the source holds several entries; their conditions need not be identical. Equal entries are not always repeated.

With `CCCCCCCCNc1cc(CCCC)c(NC(=O)c2ccc(-c3ccc(CCCCCCCC)cc3)cc2)c2c1C(=O)c1ccccc1C2=O` [Compound 1], the “Solubility (limiting)” value in data set [1] (ZK-807, 20° C.) was 2.0 mass %.

On to `CCCCc1ccc(C(=O)Nc2cc(CCCC)c(NC(=O)c3ccc(CCCC)cc3)c3c2C(=O)c2ccccc2C3=O)cc1` [Compound 2, 1,4-Bis(4-butylbenzamido)-2-butylanthraquinone], for which, in data set [2], the “negative dichroism S” value is on record as -0.22. In data set [3], the λmax came out at 475 nm. Further, the “Solubility (limiting)” value in data set [1] (SP-586, 20° C.) was determined as 2.9 mass %; in data set [1] (ZK-807, 20° C.), 4.0 mass %; in data set [1] (ZLI-1840, 20° C.) it was 3.6 mass %. In addition, the “solubility exceeds the solubility of the known analogue” value in data set [1] is given as 2.5 times.

As to `CCCCc1ccc(C(=O)Nc2ccc(OC(=O)c3ccc(CCCC)cc3)c3c2C(=O)c2c(NC(=O)c4ccc(CCCC)cc4)cc(C)c(OC(=O)c4ccc(CCCC)cc4)c2C3=O)cc1` [Compound 3, 1,8Bis-(4-butylbenzamido)-4,5-bis-(4-butylbenzoyloxy)-3-methylanthraquinone], the “negative dichroism S” value in data set [2] is -0.34. Further, the λmax in data set [3] was determined as 465 nm. Also, the “Solubility (limiting)” value in data set [1] (3010, 20° C.) turned out to be 1.1 mass %; in data set [1] (SP-586, 20° C.), 2.0 mass %; in data set [1] (ZK-807, 20° C.), 5.0 mass %; in data set [1] (ZLI-1840, 20° C.), 1.0 mass %.

With `CCCCCC1CCC(c2ccc(C(=O)Nc3ccc(OC(=O)c4ccc(C5CCC(CCCCC)CC5)cc4)c4c3C(=O)c3c(NC(=O)c5ccc(C6CCC(CCCCC)CC6)cc5)cc(C)c(OC(=O)c5ccc(C6CCC(CCCCC)CC6)cc5)c3C4=O)cc2)CC1` (centres unmarked) [Compound 4], the “negative dichroism S” value in data set [2] is given as -0.36. In addition, the λmax in data set [3] is 468 nm. Moreover, the “Solubility (limiting)” value in data set [1] (3010, 20° C.) was determined as 3.0 mass %; in data set [1] (SP-586, 20° C.), 1.9 mass %; in data set [1] (ZK-807, 20° C.) it was 1.0 mass %; in data set [1] (ZLI-1840, 20° C.), 1.5 mass %.

As to `CCCCCCC1CCC(C(=O)Nc2ccc(OC(=O)C3CCC(CCCCCC)CC3)c3c2C(=O)c2c(NC(=O)C4CCC(CCCCCC)CC4)cc(C)c(OC(=O)C4CCC(CCCCCC)CC4)c2C3=O)CC1` (centres unmarked) [Compound 5], the “negative dichroism S” value in data set [2] is reported as -0.37. The same compound displayed a λmax in data set [3] of 461 nm. The “Solubility (limiting)” value in data set [1] (3010, 20° C.) was 1.0 mass %; in data set [1] (ZK-807, 20° C.), 3.0 mass %.

Turning to `CCCCc1ccc(C(=O)Nc2cc(CCCC)c(OC(=O)c3ccc(CCCC)cc3)c3c2C(=O)c2c(NC(=O)c4ccc(CCCC)cc4)cc(CCCC)c(OC(=O)c4ccc(CCCC)cc4)c2C3=O)cc1` [Compound 6, 1,8-Bis-(4-butylbenzamido)-4,5-bis-(4.butylbenzoyloxy)-3,6-dibutylanthraquinone], the “negative dichroism S” value in data set [2] is -0.33. The λmax in data set [3] is given as 468 nm. Besides, the “Solubility (limiting)” value in data set [1] (3010, 20° C.) came out at 4.6 mass %; in data set [1] (SP-586, 20° C.) it was 4.0 mass %; in data set [1] (ZK-807, 20° C.), 9.0 mass %; in data set [1] (ZK-1282, 20° C.), 4.0 mass %. Further, the “solubility exceeds the solubility of the known analogue” value in data set [1] is given as 18 times.

`CCCCCCc1ccc(C(=O)Nc2cc(CCCC)c(OC(=O)c3ccc(CCCCCC)cc3)c3c2C(=O)c2c(NC(=O)c4ccc(CCCCCC)cc4)cc(CCCC)c(OC(=O)c4ccc(CCCCCC)cc4)c2C3=O)cc1` [Compound 7]: in data set [2], the “negative dichroism S” value was -0.26. The λmax in data set [3] is 434 nm and 455 nm. Further, in data set [1] (ZK-807, 20° C.), the “Solubility (limiting)” value is given as 5.0 mass %. Moreover, in data set [1], the “solubility exceeds the solubility of the known analogue” value amounted to 10 times.

On to `CCCCCC1CCC(c2ccc(C(=O)Nc3cc(CCCC)c(OC(=O)c4ccc(C5CCC(CCCCC)CC5)cc4)c4c3C(=O)c3c(NC(=O)c5ccc(C6CCC(CCCCC)CC6)cc5)cc(CCCC)c(OC(=O)c5ccc(C6CCC(CCCCC)CC6)cc5)c3C4=O)cc2)CC1` (centres unmarked) [Compound 8], for which, in data set [2], the “negative dichroism S” value was -0.38. In data set [3], this compound displayed a λmax of 466 nm. Besides, the “Solubility (limiting)” value in data set [1] (3010, 20° C.) is 2.6 mass %; in data set [1] (ZK-807, 20° C.), 11.0 mass %; in data set [1] (ZK-1282, 20° C.), 1.8 mass %; in data set [1] (ZLI-1840, 20° C.) it was 5.7 mass %.

In the case of `CCCCCC1CCC(c2ccc(C(=O)Nc3cc(CCCC)c(OC(=O)C4CCC(CCCC)CC4)c4c3C(=O)c3c(NC(=O)c5ccc(C6CCC(CCCCC)CC6)cc5)cc(CCCC)c(OC(=O)C5CCC(CCCC)CC5)c3C4=O)cc2)CC1` (centres unmarked) [Compound 9], in data set [2], the “negative dichroism S” value is listed as -0.38. In data set [3], this compound came in with a λmax of 475 nm. Besides, the “Solubility (limiting)” value in data set [1] (3010, 20° C.) stood at 9.0 mass %; in data set [1] (ZK-807, 20° C.), 9.0 mass %; in data set [1] (ZLI-1840, 20° C.) it was 7.7 mass %.

For `CCCCc1cc(NC(=O)C2CCC(CCCC)CC2)c2c(c1OC(=O)c1ccc(C3CCC(CCCC)CC3)cc1)C(=O)c1c(OC(=O)c3ccc(C4CCC(CCCC)CC4)cc3)c(CCCC)cc(NC(=O)C3CCC(CCCC)CC3)c1C2=O` (centres unmarked) [Compound 10], in data set [2], the “negative dichroism S” value is listed as -0.35. In data set [3], this compound had a λmax of 466 nm. For the same compound, the “Solubility (limiting)” value is 9.0 mass % in data set [1] (3010, 20° C.); 7.5 mass % in data set [1] (SP-586, 20° C.); 10.8 mass % in data set [1] (ZK-807, 20° C.); 7.2 mass % in data set [1] (ZLI-1840, 20° C.).

In the case of `CCCCCC1CCC(c2ccc(C(=O)Nc3cc(CCCC)c(OC(=O)CCC)c4c3C(=O)c3c(NC(=O)c5ccc(C6CCC(CCCCC)CC6)cc5)cc(CCCC)c(OC(=O)CCC)c3C4=O)cc2)CC1` (centres unmarked) [Compound 12], the “negative dichroism S” value in data set [2] is given as -0.35. In data set [3], this compound returned a λmax of 473 nm. Besides, the “Solubility (limiting)” value in data set [1] (3010, 20° C.) came out at 1.82 mass %; in data set [1] (ZK-807, 20° C.), 5.2 mass %.

In the case of `CCCCc1cc(NC(=O)c2ccc(C3CCC(CCCC)CC3)cc2)c2c(c1OC(=O)CCC)C(=O)c1c(OC(=O)CCC)c(CCCC)cc(NC(=O)c3ccc(C4CCC(CCCC)CC4)cc3)c1C2=O` (centres unmarked) [Compound 13], in data set [2], the “negative dichroism S” value was -0.37. The same compound had a λmax in data set [3] of 470 nm. Further, the “Solubility (limiting)” value in data set [1] (3010, 20° C.) stood at 1.75 mass %; in data set [1] (ZK-807, 20° C.) it was 4.9 mass %; in data set [1] (ZLI-1840, 20° C.), 2.1 mass %.

As for `CCCCCc1cc(NC(=O)c2ccc(CCCC)cc2)c2c(c1OC(=O)c1ccc(CCCC)cc1)C(=O)c1c(OC(=O)c3ccc(CCCC)cc3)c(CCCCC)cc(NC(=O)c3ccc(CCCC)cc3)c1C2=O` [Compound 14], the “negative dichroism S” value in data set [2] is on record as -0.32. Moreover, the λmax in data set [3] is 458 nm and 470 nm. Also, the “Solubility (limiting)” value in data set [1] (3010, 20° C.) turned out to be 4.46 mass %; in data set [1] (SP-586, 20° C.), 3.78 mass %; in data set [1] (ZK-807, 20° C.), 9.5 mass %; in data set [1] (ZK-1282, 20° C.), 4.0 mass %; in data set [1] (ZLI-1840, 20° C.), 3.8 mass %.

On to `CCCCc1ccc(C(=O)Nc2cc(CCCC)c(O)c3c2C(=O)c2c(NC(=O)c4ccc(CCCC)cc4)cc(CCCC)c(OC(=O)c4ccc(CCCC)cc4)c2C3=O)cc1` [Compound 18, 1,8-bis-(4-butylbenzamido)-4-(4-butylbenzoyloxy)-3,6-dibutyl-5-oxyanthraquinone], for which, in data set [2], the “negative dichroism S” value is -0.31. Also, in data set [3], the λmax was 534 nm. Besides, the “Solubility (limiting)” value in data set [1] (3010, 20° C.) came out at 0.7 mass %; in data set [1] (ZK-807, 20° C.) it was 2.7 mass %.

On to `CCCCCC1CCC(c2ccc(C(=O)Nc3cc(CCCC)c(O)c4c3C(=O)c3c(NC(=O)c5ccc(C6CCC(CCCCC)CC6)cc5)cc(CCCC)c(OC(=O)c5ccc(C6CCC(CCCCC)CC6)cc5)c3C4=O)cc2)CC1` (centres unmarked) [Compound 19], for which, in data set [2], the “negative dichroism S” value is -0.38. The λmax in data set [3] stood at 540 nm. For the same compound, the “Solubility (limiting)” value in data set [1] (3010, 20° C.) is recorded as 4.8 mass %; in data set [1] (SP-586, 20° C.) it was 2.9 mass %; in data set [1] (ZLI-1840, 20° C.), 2.5 mass %.

As to `CCCCCCC1CCC(c2ccc(C(=O)Nc3cc(CCCC)c(O)c4c3C(=O)c3c(NC(=O)c5ccc(C6CCC(CCCCCC)CC6)nc5Cl)cc(CCCC)c(OC(=O)c5ccc(C6CCC(CCCCCC)CC6)nc5Cl)c3C4=O)c(Cl)n2)CC1` (centres unmarked) [Compound 20], in data set [2], the “negative dichroism S” value was -0.33. This compound also registered a λmax in data set [3] of 534 nm. Moreover, the “Solubility (limiting)” value in data set [1] (3010, 20° C.) is 0.75 mass %; in data set [1] (ZK-807, 20° C.), 1.2 mass %; in data set [1] (ZLI-1840, 20° C.) it was 0.7 mass %.

`CCCCCC1CCC(c2ccc(C(=O)Nc3cc(CCCC)c(O)c4c3C(=O)c3c(NC(=O)c5ccc(C6CCC(CCCCC)CC6)cc5)cc(CCCC)c(OC(=O)C5CCC(CCCC)CC5)c3C4=O)cc2)CC1` (centres unmarked) [Compound 21]: the “negative dichroism S” value in data set [2] is listed as -0.37. Further, the λmax in data set [3] turned out to be 542 nm. Further, the “Solubility (limiting)” value is on record as 3.3 mass % in data set [1] (3010, 20° C.); 2.7 mass % in data set [1] (ZK-1282, 20° C.); 3.0 mass % in data set [1] (ZLI-1840, 20° C.).

`CCCCc1cc(NC(=O)c2ccc(C3CCC(CCCC)CC3)cc2)c2c(c1O)C(=O)c1c(O)c(CCCC)cc(NC(=O)c3ccc(C4CCC(CCCC)CC4)cc3)c1C2=O` (centres unmarked) [Compound 30]: the “negative dichroism S” value in data set [2] is recorded as -0.34. Moreover, the λmax in data set [3] is 566 nm and 608 nm.

As to `CCCCCCCCc1ccc(-c2ccc(C(=O)Nc3ccc(NCCCC)c4c3C(=O)c3ccccc3C4=O)cc2)cc1` [No. 1, Table 6, reference compound], the “Solubility (limiting), known derivatives” value in data set [1] (ZK-807, 20° C.) was 0.8 mass %; in data set [1] (ZLI-1840, 20° C.), 0.4 mass %.

With `CCCCCc1ccc(-c2ccc(C(=O)Nc3ccc(NCCCC)c4c3C(=O)c3ccccc3C4=O)cc2)cc1` [No. 2, Table 6, reference compound], the “Solubility (limiting), known derivatives” value in data set [1] (ZK-807, 20° C.) is 0.9 mass %; in data set [1] (ZLI-1840, 20° C.) it was 0.5 mass %.

The values are drawn from patent US4933104A, “Anthraquinone derivative as a dichroic dye for a liquid-crystal material, liquid-crystal material and an electrooptical device” (priority 1986, dated 1990).
